The values that follow come from ChEMBL document CHEMBL1141530, “Synthesis and SAR of 1-acetanilide-4-aminopyrazole-substituted quinazolines: selective inhibitors of Aurora B kinase with potent anti-tumor activity” (Bioorg Med Chem Lett, 2008).

Data set [1] has as its system Mus musculus. The experiment in a line: Inhibition of histone-H3 phosphorylation in human SW620 cells xenografted mouse at 0.5 mg/kg/day, sc after 48 hrs. Format: functional, organism-based. The following applies: SW-620. A general note: In xenograft studies the graft and the host belong to different species.
Another data set addresses Cytochrome P450 3A4 (Homo sapiens, UniProt P08684). As to the kind of experiment: Inhibition of human CYP3A4. It counts as ADME.
Data set [2] deals with Mus musculus. The experiment in a line: Inhibition of histone-H3 phosphorylation in human SW620 cells xenografted mouse at 2.5 mg/kg/day, sc after 48 hrs. The following applies: SW-620, sc, route subcutaneous. Format: functional.
Data set [3] has as its target Voltage-gated inwardly rectifying potassium channel KCNH2 (Homo sapiens, UniProt Q12809). The experiment in a line: Inhibition of human ERG by automated whole cell electrophysiology.
Data set [4] deals with SW-620. The experiment in a line: Antitumor activity against human SW620 cells xenografted in mouse assessed as reduction in tumor size at 2.5 mg/kg after 48 hrs. It counts as functional, organism-based. Details: dose 2.5 mg/kg.
Data set [5] has as its system SW-620. The experiment in a line: Antiproliferative activity against human SW620 cells assessed as inhibition of DNA synthesis after 48 hrs by 2-h BrdU uptake assay. It counts as functional, cell-based.
The test system of data set [6] is SW-620. As to the kind of experiment: Antitumor activity against human SW620 cells xenografted in mouse assessed as tumor growth inhibition at 50 mg/kg after 24 hrs. It counts as functional. Details: scale not given: the % may be the effect or the level left.
A short description of data set [7]: Solubility in tris buffer at pH 9. It counts as physicochemical.

In brackets after ≈: the same amount, converted by molar mass. Activity calls are given as the source filed them. No cut-off for these calls is given here.

Voltage-gated inwardly rectifying potassium channel KCNH2, sequence (Q12809 whole entry): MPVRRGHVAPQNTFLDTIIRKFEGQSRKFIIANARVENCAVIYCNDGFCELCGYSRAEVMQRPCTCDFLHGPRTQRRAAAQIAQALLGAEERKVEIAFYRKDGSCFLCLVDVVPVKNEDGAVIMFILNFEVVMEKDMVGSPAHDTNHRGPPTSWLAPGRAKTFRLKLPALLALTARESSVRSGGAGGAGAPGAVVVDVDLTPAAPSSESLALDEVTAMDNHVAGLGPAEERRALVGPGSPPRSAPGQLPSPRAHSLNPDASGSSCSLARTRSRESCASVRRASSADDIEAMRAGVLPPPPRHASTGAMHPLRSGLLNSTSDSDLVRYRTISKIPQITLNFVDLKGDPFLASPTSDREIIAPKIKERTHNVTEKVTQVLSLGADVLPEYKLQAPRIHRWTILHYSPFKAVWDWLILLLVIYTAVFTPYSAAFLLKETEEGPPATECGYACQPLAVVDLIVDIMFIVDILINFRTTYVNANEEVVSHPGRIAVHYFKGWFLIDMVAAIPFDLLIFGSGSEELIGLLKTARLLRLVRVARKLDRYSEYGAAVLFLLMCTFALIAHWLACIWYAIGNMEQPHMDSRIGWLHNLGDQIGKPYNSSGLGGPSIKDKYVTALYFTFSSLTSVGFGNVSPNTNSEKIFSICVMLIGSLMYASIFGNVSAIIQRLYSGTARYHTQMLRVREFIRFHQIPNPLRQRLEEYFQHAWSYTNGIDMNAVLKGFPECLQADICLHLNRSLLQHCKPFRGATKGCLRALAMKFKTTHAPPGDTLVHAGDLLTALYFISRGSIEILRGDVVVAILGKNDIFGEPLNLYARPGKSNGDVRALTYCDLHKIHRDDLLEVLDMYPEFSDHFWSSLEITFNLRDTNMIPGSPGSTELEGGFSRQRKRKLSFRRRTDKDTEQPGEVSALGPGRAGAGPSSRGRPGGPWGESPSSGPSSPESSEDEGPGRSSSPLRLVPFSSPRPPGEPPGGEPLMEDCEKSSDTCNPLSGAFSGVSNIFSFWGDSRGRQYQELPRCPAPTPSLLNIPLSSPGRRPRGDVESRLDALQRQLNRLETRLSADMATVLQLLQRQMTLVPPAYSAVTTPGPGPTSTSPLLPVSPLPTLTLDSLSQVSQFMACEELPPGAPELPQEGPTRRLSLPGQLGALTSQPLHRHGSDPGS
Cytochrome P450 3A4, sequence (P08684 whole entry): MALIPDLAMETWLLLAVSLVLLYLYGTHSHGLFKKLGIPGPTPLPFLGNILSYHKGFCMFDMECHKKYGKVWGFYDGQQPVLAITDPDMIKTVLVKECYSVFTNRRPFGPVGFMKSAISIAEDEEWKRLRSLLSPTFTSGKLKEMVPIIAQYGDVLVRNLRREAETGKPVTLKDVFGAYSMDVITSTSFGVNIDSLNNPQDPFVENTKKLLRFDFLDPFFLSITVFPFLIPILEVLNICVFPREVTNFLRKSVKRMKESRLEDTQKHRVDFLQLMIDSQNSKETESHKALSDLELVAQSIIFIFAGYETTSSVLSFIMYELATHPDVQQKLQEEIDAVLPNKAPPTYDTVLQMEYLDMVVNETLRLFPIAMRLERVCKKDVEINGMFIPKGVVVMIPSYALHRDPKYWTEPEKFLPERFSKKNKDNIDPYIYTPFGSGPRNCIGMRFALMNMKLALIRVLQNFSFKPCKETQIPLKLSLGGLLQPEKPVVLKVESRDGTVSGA

In the case of `O=C(Cn1cc(Nc2ncnc3cc(OCCCN4CCC[C@@H]4COP(=O)(O)O)ccc23)cn1)Nc1cccc(F)c1F`, the outcome in the data set with Mus musculus [1] and in the data set on SW-620 [4] was Active. In addition, the values for the IC50 (at Cytochrome P450 3A4; in data set [3]; with SW-620 [5]) were 6.1 µM, over 100 µM and under 0.001 µM, respectively. The inhibition in vivo (as a rule, the relative decrease from the control value, in per cent) at 2.5 mg/kg/day with Mus musculus [2] came out at 75%. In the data set with SW-620 [6], the Activity is 89%. Moreover, the solubility (in general, the dissolved amount per volume that the medium holds) in data set [7] was determined as 10000 µg/mL (≈ 16.2 mM).
